Measurements reported in patent US9018214B2, “Bicyclic heterocycle compounds and their uses in therapy” (Astex Therapeutics Limited, priority 2011, dated 2015).
Where a name gives a salt, the structure may show the parent alone. Read-outs that look alike come from different tables or passages of the source.

Assays:
[1] = target: BIR3 domain of human XIAP (residues 252-350) (Homo sapiens (Human), UniProt P98170); assay: XIAP in vitro competitive displacement binding assay (fluorescence polarization); conditions: for IC50: read-out: IC50 or PI Xiap: IC50; for inhibition at 0.04 µM: 1 h, read-out: IC50 or PI Xiap: PI
[2] = target: BIR3 domain of human cIAP-1 (residues 267-363) (Homo sapiens (Human), UniProt Q13490); assay: cIAP-1 in vitro competitive displacement binding assay (fluorescence polarization; Probe A AVPIK(5&6FAM)-amide or Probe B AbuRPFK(5&6FAM)-amide); conditions: for inhibition at […] / inhibition at 0.01 µM: 3 h, read-out: IC50 or PI cIAP1: PI
[3] = tested on: EVSA-T (human breast carcinoma); assay: Anti-proliferative activity, Alamar Blue assay, EVSA-T; assay type: cell-based; conditions: Homo sapiens
[4] = EVSA-T, 72 h, read-out: EVSA-T prolif (EC50)
[5] = read-out: IC50 or PI cIAP1: IC50
[6] = Probe B AbuRPFK(5&6FAM)-amide, read-out: IC50 or PI cIAP1: IC50
[7] = EVSA-T, 72 hours, Alamar Blue, read-out: EVSA-T prolif (EC50)

| IC50 [2] | EC50 [3, 7] | Structure (SMILES) | IC50 [1] | inhibition at […] [2] | EC50 [3, 4] | other results |
| --- | --- | --- | --- | --- | --- | --- |
| – | – | C[C@@H]1CN(CC(=O)N2CC(C)(C)c3cnc(Cc4ccc(F)cc4F)cc32)[C@@H](CN2CCC(F)(F)C2)CN1 [Example 208, 1-{6-[(2,4-Difluorophenyl)methyl]-3,3-dimethyl-1H,2H,3H-pyrrolo[3,2-c]pyridin-1-yl}-2-[(2R,5R)-2-[(3,3-difluoropyrrolidin-1-yl)methyl]-5-methylpiperazin-1-yl]ethan-1-one dihydrochloride] | 64 nM | 99% | 4 nM | – |
| – | – | C[C@@H]1CN(CC(=O)N2CC(C)(C)c3cnc(Cc4ccc(F)cc4F)cc32)[C@@H](CN2CC[C@H](F)C2)CN1 [Example 202, 1-{6-[(2,4-Difluorophenyl)methyl]-3,3-dimethyl-1H,2H,3H-pyrrolo[3,2-c]pyridin-1-yl}-2-[(2R,5R)-2-{[(3S)-3-fluoropyrrolidin-1-yl]methyl}-5-methylpiperazin-1-yl]ethan-1-one diydrochloride] | 77 nM | – | 2.1 nM | inhibition at […] ([2]; Probe B, @ 0.012 μM): 88% |
| – | – | C[C@@H]1CN(CC(=O)N2CC(C)(C)c3cnc(Cc4ccccc4)cc32)[C@@H](C(=O)N2CCCC2)CN1 [Example 131, 1-{6-Benzyl-3,3-dimethyl-1H,2H,3H-pyrrolo[3,2-c]pyridin-1-yl}-2-[(2R,5R)-5-methyl-2-[(pyrrolidin-1-yl)carbonyl]piperazin-1-yl]ethan-1-one dihydrochloride] | 130 nM | – | 88 nM | inhibition at 0.01 µM [2]: 63% |
| < 1000 nM | 310 nM | COC[C@H]1CN[C@H](C)CN1CC(=O)N1CC(C)(C)c2cnc(Cc3cccc(Cl)c3)cc21 [Example 86, 1-{6-[(3-Chlorophenyl)methyl]-3,3-dimethyl-1H,2H,3H-pyrrolo[3,2-c]pyridin-1-yl}-2-[(2R,5R)-2-(methoxymethyl)-5-methylpiperazin-1-yl]ethan-1-one, hydrochloride salt] | 290 nM | – | – | IC50 [2, 6]: 12 nM |
| – | 4800 nM | C[C@@H]1CN(CC(=O)N2CC3(Cc4ccccc4C3)c3ccc(C#N)cc32)[C@@H](C(=O)N2CCOCC2)CN1 [Example 109, 1′-{2-[(2R,5R)-5-Methyl-2-[(morpholin-4-yl)carbonyl]piperazin-1-yl]acetyl}-1,1′,2′,3-tetrahydro-spiro[indene-2,3′-indole]-6′-carbonitrile, hydrochloride salt] | 63 nM | – | – | IC50 [2, 6]: 150 nM |
| < 1000 nM | – | C[C@@H]1CN(CC(=O)N2CC(C)(C)c3ccc(Cl)cc32)[C@@H](CO)CN1 [Example 40, 1-(6-Chloro-3,3-dimethyl-2,3-dihydro-indol-1-yl)-2-((2R,5R)-2-hydroxymethyl-5-methyl-piperazin-1-yl)-ethanone hydrochloride salt] | 960 nM | – | – | IC50 ([2]; Probe A AVPIK(5&6FAM)-amide, read-out: IC50 or PI cIAP1: IC50): 820 nM; inhibition at 10 µM ([3]; EVSA-T, at 10 μM, read-out: EVSA-T prolif: % inhibition): 45% |
| – | 5200 nM | CC(=O)NC[C@H]1CN[C@H](C)CN1CC(=O)N1CC(C)(C)c2ccc(Cl)cc21 [Example 45, N-{(2R,5R)-1-[2-(6-Chloro-3,3-dimethyl-2,3-dihydro-indol-1-yl)-2-oxo-ethyl]-5-methyl-piperazin-2-ylmethyl}-acetamide hydrochloride salt] | 1100 nM | – | – | IC50 [2, 6]: 580 nM |
| – | 40 nM | COC[C@H]1CN[C@H](C)CN1CC(=O)N1CC(C)(C)c2cnc(Cc3ccc(F)cc3)cc21 [Example 88, 1-{6-[(4-Fluoro-phenyl)methyl]-3,3-dimethyl-1H,2H,3H-pyrrolo[3,2-c]pyridin-1-yl}-2-[(2R,5R)-2-(methoxy-methyl)-5-methyl-piperazin-1-yl]ethan-1-one, hydrochloride salt] | 170 nM | – | – | inhibition at 0.01 µM ([2]; Probe B, @ 0.01 μM): 84% |
| – | – | C[C@@H]1CN(CC(=O)N2CC(C)(C)c3cnc(Cc4ccc(F)cc4F)cc32)[C@@H](Cn2cccnc2=O)CN1 [Example 185, 1-{[(2R,5R)-1-(2-{6-[(2,4-Difluorophenyl)methyl]-3,3-dimethyl-1H,2H,3H-pyrrolo[3,2-c]pyridin-1-yl}-2-oxoethyl)-5-methylpiperazin-2-yl]methyl}-1,2-dihydropyrimidin-2-one dihydrochloride] | 77 nM | 94% | 10 nM | – |
| < 1000 nM | 2300 nM | CNC(=O)[C@H]1CN[C@H](C)CN1CC(=O)N1CC(C)(C)c2cc(F)c(S(=O)(=O)c3ccccc3)cc21 [Example 56, (2R,5R)-1-[2-(6-Benzenesulfonyl-5-fluoro-3,3-dimethyl-2,3-dihydro-indol-1-yl)-2-oxo-ethyl]-5-methyl-piperazine-2-carboxylic acid methylamide hydrochloride salt] | 110 nM | – | – | IC50 [2, 6]: 130 nM; EC50 ([3]; EVSA-T cell line, 72 hours, Alamar Blue, read-out: EC50, inhibition of cell growth): < 10000 nM |

| Structure (SMILES) | IC50 [2] | EC50 [3, 7] | IC50 [1] | inhibition at […] [2] | EC50 [3, 4] | other results |
| --- | --- | --- | --- | --- | --- | --- |
| CCC(F)(F)c1cnc2c(c1)N(C(=O)CN1C[C@@H](C)NC[C@@H]1CN1CCOC[C@H]1COC)CC2(C)C [Example 256, 1-[6-(1,1-Difluoropropyl)-3,3-dimethyl-1H,2H,3H-pyrrolo[3,2-b]pyridin-1-yl]-2-[(2R,5R)-2-{[(3R)-3-(methoxymethyl)morpholin-4-yl]methyl}-5-methylpiperazin-1-yl]ethan-1-one dihydrochloride] | < 1000 nM | – | 53 nM | – | 78 nM | IC50 [2, 5]: 24 nM |
| C[C@@H]1CN(CC(=O)N2CC(C)(C)c3ncc(C(F)(F)CC4CC4)cc32)[C@@H](CN2CCOCC2)CN1 [Example 231, 1-[6-(2-Cyclopropyl-1,1-difluoroethyl)-3,3-dimethyl-1H,2H,3H-pyrrolo[3,2-b]pyridin-1-yl]-2-[(2R,5R)-5-methyl-2-(morpholin-4-ylmethyl)piperazin-1-yl]ethan-1-one dihydrochloride] | < 1000 nM | – | 65 nM | – | 67 nM | IC50 [2, 5]: 9.5 nM |
| C[C@@H]1CN(CC(=O)N2CC(C)(C)c3cnc(Cc4ccc(F)cc4F)cc32)[C@@H](Cn2ccccc2=O)CN1 [Example 193, 1-{[(2R,5R)-1-(2-{6-[(2,4-Difluorophenyl)methyl]-3,3-dimethyl-1H,2H,3H-pyrrolo[3,2-c]pyridin-1-yl}-2-oxoethyl)-5-methylpiperazin-2-yl]methyl}-1,2-dihydropyridin-2-one dihydrochloride] | – | 16 nM | – | 98% | – | inhibition at 0.04 µM [1]: 44% |
| CCCC(F)(F)c1cnc2c(c1)N(C(=O)CN1C[C@@H](C)NC[C@@H]1CN1CCOC[C@H]1C)CC2(C)C [Example 260, 1-[6-(1,1-Difluoro-butyl)-3,3-dimethyl-2,3-dihydro-pyrrolo[3,2-b]pyridin-1-yl]-2-[(2R,5R)-5-methyl-2-((R)-3-methyl-morpholin-4-ylmethyl)-piperazin-1-yl]-ethanone dihydrochloride] | – | 4.4 nM | – | 90% | – | inhibition at 0.04 µM [1]: 73% |
| Cc1cnn(C[C@H]2CN[C@H](C)CN2CC(=O)N2CC(C)(C)c3cnc(C(F)(F)c4ccccc4)cc32)c1 [Example 159, 1-{6-[Difluoro(phenyl)methyl]-3,3-dimethyl-1H,2H,3H-pyrrolo[3,2-c]pyridin-1-yl}-2-[(2R,5R)-5-methyl-2-[(4-methyl-1H-pyrazol-1-yl)methyl]piperazin-1-yl]ethan-1-one dihydrochloride] | – | 120 nM | – | 72% | – | inhibition at 0.04 µM [1]: 56% |
